# Results reported in ChEMBL document CHEMBL1269002, “A protecting group-free synthesis of deazathiamine: a step toward inhibitor design” (Bioorg Med Chem Lett, 2010).
# Key:
# [1] = Competitive inhibition of Mycobacterium tuberculosis 2-hydroxy-3-oxoadipate synthase-catalyzed reduction of ferricyanide
# [2] = Inhibition of Mycobacterium tuberculosis 2-hydroxy-3-oxoadipate synthase-catalyzed reduction of ferricyanide
SMILES,Ki [1],IC50 [2]
Cc1ncc(Cc2csc(CCOP(=O)(O)OP(=O)(O)O)c2C)c(N)n1,3.5 µM,6.7 µM
Cc1ncc(Cc2csc(CCO)c2C)c(N)n1 [3-DEAZATHIAMINE],76 µM,144 µM
